Results from US12246008B2, “4-amino or 4-alkoxy-substituted aryl sulfonamide compounds with selective activity in voltage-gated sodium channels” (Merck Sharp & Dohme LLC, priority 2018, dated 2025).
Like-named read-outs stand apart in the source and are kept apart here.

Columns and labels:
Assay in all cases: Qube automated patch-clamp assay, inhibition of sodium current
Format in all cases: cell-based
[1] = molecular target: T1, human Nav1.6 channels stably expressed in HEK 293 cells (Homo sapiens, UniProt Q9UQD0); conditions: holding potential −65 mV; max concentration tested 33750 nM
T1 construct: expressed in transfected cells; host or cells: HEK 293
Procedure: (§1) Qube™ Experimental Procedure:
(§2) Compounds were tested on human Nav1.7 and Nav1.6 channels stably expressed in HEK 293 cells. […] Cells were sealed on a planar substrate using the multihole technology. Cells expressing human Nav1.7 channels were held at −75 mV or −80 mV. Cells expressing human Nav1.6 channels were held at −65 mV. A train of 6 consecutive test pulses to −10 mV, preceded by 8 s prepulses to −115 mV, was applied at a frequency of 0.1 Hz before and after compound addition. Cells in each Qchip well were incubated in compound for 5 minutes before measuring inhibition. Peak currents were measured in control conditions and after compound addition. The following recording solutions were used (mM). External Nav1.6: 150 NaCl, 2 CaCl2), 5 KCl, 1 Mg Cl2, 10 HEPES, 12 Dextrose; external Nav1.7: 40 NaCl, 120 NMDG, 1 KCl, 0.5 MgCl2, 5 HEPES, 2.7 CaCl2); internal: 120 CsF, 30 CsCl, 10 EGTA, 5 HEPES, 5 NaF, 2 MgCl2. Compounds were prepared as 10 mM stock solutions in DMSO. 10 point compound titrations were generated using the Echo acoustic liquid handling instrument and glass coated 384 well plates. The final DMSO concentration in the assay was 0.3%. For all electrophysiology experiments, offline analysis was used to determine percent inhibition as a function of drug concentration. IC50 values were determined by fitting to the Hill equation.
(§3) The various compounds in EXAMPLES 1 through 43 and TABLE 2 exemplified above were assayed for activity and selectivity using the foregoing Qube® technique. The results are reported in TABLE 3 in a format expressing the identification of the compound with reference EXAMPLE followed by the observed potency in nM for NaV1.7, NaV1.6 and NaV1.5. NA signifies not applicable and the max concentration tested is 33750 nM.

[2] = molecular target: T2, human Nav1.7 channels stably expressed in HEK 293 cells (Homo sapiens, UniProt Q15858); conditions: max concentration tested 33750 nM, read-out: NaV1.7 (nM)
T2 construct: expressed in transfected cells; host or cells: HEK 293
Procedure: as §1, §2, §3

NaV1.5 = NaV1.5 (Homo sapiens, UniProt Q14524); conditions: holding potential −80 mV; max concentration tested 33750 nM
Procedure: as §2, §3

[3] = holding potential −75 mV, −75 mV
[4] = holding potential −80 mV, −80 mV

T2 sequence (Q15858 whole entry): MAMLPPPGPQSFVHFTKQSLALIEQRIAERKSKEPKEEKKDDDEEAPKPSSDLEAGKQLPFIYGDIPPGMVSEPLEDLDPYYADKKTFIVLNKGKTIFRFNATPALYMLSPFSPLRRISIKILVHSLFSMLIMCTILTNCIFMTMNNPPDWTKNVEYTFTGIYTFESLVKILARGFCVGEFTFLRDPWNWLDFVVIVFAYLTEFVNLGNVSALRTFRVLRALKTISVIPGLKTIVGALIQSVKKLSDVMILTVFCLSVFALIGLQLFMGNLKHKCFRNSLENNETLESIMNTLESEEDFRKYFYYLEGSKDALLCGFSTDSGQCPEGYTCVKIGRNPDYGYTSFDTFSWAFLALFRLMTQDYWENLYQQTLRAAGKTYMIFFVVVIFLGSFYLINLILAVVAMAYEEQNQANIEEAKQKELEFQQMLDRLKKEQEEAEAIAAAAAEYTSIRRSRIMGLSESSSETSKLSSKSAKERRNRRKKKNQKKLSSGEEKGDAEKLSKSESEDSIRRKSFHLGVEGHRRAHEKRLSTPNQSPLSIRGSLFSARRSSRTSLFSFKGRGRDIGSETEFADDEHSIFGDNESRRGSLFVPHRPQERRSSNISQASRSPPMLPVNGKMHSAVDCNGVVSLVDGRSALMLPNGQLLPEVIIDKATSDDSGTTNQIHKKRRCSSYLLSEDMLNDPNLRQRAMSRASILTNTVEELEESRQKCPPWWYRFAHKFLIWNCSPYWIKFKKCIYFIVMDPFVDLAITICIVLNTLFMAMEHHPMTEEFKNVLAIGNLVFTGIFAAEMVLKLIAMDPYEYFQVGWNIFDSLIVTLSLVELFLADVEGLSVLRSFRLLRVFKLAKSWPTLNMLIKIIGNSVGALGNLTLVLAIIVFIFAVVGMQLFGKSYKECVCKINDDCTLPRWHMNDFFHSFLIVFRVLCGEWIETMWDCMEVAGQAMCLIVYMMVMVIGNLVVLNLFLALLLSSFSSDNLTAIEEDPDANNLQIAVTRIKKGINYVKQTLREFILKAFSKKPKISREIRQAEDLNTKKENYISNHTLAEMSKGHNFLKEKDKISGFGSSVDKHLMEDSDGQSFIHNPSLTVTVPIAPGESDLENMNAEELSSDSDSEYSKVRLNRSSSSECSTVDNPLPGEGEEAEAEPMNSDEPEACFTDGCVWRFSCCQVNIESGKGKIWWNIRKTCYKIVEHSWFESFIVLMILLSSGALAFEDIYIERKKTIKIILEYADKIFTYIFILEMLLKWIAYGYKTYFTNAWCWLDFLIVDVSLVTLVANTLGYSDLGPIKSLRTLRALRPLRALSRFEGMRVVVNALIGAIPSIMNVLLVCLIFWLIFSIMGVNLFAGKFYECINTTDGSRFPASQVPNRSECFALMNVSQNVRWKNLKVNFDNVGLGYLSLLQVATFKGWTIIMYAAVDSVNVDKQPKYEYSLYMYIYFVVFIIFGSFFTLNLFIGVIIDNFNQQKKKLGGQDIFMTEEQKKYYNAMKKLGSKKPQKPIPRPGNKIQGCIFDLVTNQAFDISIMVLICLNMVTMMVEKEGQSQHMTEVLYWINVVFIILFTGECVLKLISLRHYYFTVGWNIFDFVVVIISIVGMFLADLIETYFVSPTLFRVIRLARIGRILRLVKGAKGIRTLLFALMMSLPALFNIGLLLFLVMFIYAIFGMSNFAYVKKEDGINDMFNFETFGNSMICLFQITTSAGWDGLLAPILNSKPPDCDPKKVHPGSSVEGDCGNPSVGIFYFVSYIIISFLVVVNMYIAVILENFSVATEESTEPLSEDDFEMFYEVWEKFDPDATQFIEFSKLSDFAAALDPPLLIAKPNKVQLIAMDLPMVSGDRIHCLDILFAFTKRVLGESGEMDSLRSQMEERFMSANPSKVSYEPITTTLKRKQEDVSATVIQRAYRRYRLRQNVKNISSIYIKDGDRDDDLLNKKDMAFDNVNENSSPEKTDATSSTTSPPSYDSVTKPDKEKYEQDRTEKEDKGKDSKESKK
NaV1.5, sequence (Q14524 whole entry): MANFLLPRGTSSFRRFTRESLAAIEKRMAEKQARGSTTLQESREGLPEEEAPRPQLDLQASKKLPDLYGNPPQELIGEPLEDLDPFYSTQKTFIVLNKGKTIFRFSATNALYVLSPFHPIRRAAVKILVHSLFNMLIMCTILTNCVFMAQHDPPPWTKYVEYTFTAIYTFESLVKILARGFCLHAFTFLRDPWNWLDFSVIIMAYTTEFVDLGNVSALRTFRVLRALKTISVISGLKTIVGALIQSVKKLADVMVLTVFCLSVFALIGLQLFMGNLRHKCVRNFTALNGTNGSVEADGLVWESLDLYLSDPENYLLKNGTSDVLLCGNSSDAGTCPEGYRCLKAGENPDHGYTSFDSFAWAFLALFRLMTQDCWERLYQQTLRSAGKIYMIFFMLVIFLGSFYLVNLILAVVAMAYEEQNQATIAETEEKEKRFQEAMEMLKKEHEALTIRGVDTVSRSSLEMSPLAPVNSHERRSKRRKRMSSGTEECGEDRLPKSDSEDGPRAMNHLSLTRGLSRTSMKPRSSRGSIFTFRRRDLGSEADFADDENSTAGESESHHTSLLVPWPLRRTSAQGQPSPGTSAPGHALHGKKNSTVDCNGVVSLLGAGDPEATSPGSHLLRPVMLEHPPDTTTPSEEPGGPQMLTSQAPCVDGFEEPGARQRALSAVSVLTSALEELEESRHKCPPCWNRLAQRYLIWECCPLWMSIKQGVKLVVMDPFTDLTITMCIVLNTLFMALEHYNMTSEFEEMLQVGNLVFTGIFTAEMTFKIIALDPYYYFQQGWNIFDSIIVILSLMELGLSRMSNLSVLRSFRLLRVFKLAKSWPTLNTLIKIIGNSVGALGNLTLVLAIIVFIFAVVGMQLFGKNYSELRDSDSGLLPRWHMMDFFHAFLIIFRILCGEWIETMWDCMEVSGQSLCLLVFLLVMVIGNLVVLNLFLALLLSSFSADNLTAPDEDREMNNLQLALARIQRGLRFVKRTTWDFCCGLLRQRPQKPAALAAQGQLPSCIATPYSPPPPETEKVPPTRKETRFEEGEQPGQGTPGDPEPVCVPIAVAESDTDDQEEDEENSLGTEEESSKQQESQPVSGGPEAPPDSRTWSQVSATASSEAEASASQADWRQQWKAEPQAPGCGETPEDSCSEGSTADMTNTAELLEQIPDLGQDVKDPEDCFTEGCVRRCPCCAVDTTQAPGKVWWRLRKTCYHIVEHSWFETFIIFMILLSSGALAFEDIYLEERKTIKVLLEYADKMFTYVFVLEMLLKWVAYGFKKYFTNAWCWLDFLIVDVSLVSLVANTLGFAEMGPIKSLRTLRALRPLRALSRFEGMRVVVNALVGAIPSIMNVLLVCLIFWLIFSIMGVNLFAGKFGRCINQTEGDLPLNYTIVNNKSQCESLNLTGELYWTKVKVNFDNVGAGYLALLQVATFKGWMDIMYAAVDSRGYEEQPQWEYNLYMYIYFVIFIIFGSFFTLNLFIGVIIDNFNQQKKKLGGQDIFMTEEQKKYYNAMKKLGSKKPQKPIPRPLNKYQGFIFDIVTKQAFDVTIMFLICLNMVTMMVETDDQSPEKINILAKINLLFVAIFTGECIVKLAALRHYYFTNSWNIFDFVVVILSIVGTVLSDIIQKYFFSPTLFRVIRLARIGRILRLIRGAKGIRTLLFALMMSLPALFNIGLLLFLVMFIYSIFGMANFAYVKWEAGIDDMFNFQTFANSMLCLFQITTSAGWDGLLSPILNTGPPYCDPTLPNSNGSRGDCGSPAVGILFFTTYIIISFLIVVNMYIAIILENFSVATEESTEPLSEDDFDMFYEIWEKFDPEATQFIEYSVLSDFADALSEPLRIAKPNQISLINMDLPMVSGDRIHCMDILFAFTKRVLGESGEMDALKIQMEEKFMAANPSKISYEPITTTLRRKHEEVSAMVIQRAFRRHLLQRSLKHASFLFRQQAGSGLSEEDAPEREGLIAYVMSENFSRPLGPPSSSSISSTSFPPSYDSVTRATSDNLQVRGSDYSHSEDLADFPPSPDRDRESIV

Row | Structure (SMILES) | IC50 [1] [nM] | IC50 [2, 3] [nM] | IC50 [2, 4] [nM] | IC50 (NaV1.5) [nM]
1 | C[C@@H](N)C(CNc1cc(F)c(S(=O)(=O)Nc2ncns2)cc1F)CC1CCCCC1CCN (single isomer, unassigned) [Example 63] | > 33800 |  | 156 | > 33800
2 | C[C@@H](N)C(CNc1cc(F)c(S(=O)(=O)Nc2ncns2)cc1F)CC1CCCCC1CCN (single isomer, unassigned) [Example 65] | > 33800 |  | 271 | > 33800
3 | C[C@@H](N)C(CNc1cc(F)c(S(=O)(=O)Nc2ncns2)cc1F)CC1CC2(CC2)CN1 (single isomer, unassigned) [Example 72] | > 33800 |  | 229 | > 33800
4 | C[C@@H](N)[C@H](CNc1cc(F)c(S(=O)(=O)Nc2ncns2)cc1F)CC(N)CC(F)(F)F (single isomer, unassigned) [Example 85] | > 33800 | 72 |  | > 33800
5 | CCC(CN)CC(CNc1cc(F)c(S(=O)(=O)Nc2ncns2)cc1F)[C@@H](C)N (single isomer, unassigned) [Example 93] | > 33800 | 16 |  | > 33800
6 | C[C@@H](N)C(CNc1cc(F)c(S(=O)(=O)Nc2ncns2)cc1F)C[C@@]1(C)CCC[C@@H]1CN (single isomer, unassigned) [Example 97] | > 33800 | 7 | 28 | > 33800
7 | C[C@@H](N)C(CNc1cc(F)c(S(=O)(=O)Nc2ncns2)cc1F)CC1NC2CCC1C2 (single isomer, unassigned) [Example 111] | > 33800 |  | 65 | 13000
8 | C[C@@H](N)[C@H](CNc1cc(F)c(S(=O)(=O)Nc2ncns2)cc1F)CC1(CCN)CCC1 [Example 10, 4-(((2S,3R)-3-amino-2-((1-(2-aminoethyl)cyclobutyl)methyl)butyl)amino)-2,5-difluoro-N-(1,2,4-thiadiazol-5-yl)benzenesulfonamide] | > 33800 | 8 |  | > 33800
9 | C[C@@H](N)[C@H](CNc1cc(F)c(S(=O)(=O)Nc2ccncn2)cc1Cl)CC(C)(C)CCN [Example 12, 4-(((S)-6-amino-2-((R)-1-aminoethyl)-4,4-dimethylhexyl)amino)-5-chloro-2-fluoro-N-(pyrimidin-4-yl)benzenesulfonamide] | > 33800 | 133 |  | > 33800
10 | C[C@@H](N)[C@H](CNc1cc(F)c(S(=O)(=O)Nc2ncns2)cc1F)CC(N)C1(C)CC1 (stereo partly drawn) [Example 18, 4-(((2S)-4-amino-2-((R)-1-aminoethyl)-4-(1-methylcyclopropyl)butyl)amino)-2,5-difluoro-N-(1,2,4-thiadiazol-5-yl)benzenesulfonamide] | > 33800 |  | 149 | > 33800
11 | CC(C)[C@@H](N)[C@H](CNc1cc(F)c(S(=O)(=O)Nc2ncns2)cc1Cl)CC(C)(C)CCN [Example 27, 4-(((S)-6-amino-2-((R)-1-amino-2-methylpropyl)-4,4-dimethylhexyl)amino)-5-chloro-2-fluoro-N-(1,2,4-thiadiazol-5-yl)benzenesulfonamide bis(2,2,2-trifluoroacetate)] | > 33800 | 41 |  | > 33800
12 | CC(C)(CCN)C[C@@H](CNc1cc(F)c(S(=O)(=O)Nc2ncns2)cc1F)[C@H](N)C1CC1 [Example 28, 4-(((S)-6-amino-2-((R)-amino(cyclopropyl)methyl)-4,4-dimethylhexyl)amino)-2,5-difluoro-N-(1,2,4-thiadiazol-5-yl)benzenesulfonamide] | > 33800 | 34 |  | > 33800
13 | CC(C)(CCN)C[C@@H](CNc1cc(F)c(S(=O)(=O)Nc2ncns2)cc1Cl)[C@H](N)CC1CC1 [Example 29, 4-(((S)-6-amino-2-((R)-1-amino-2-cyclopropylethyl)-4,4-dimethylhexyl)amino)-5-chloro-2-fluoro-N-(1,2,4-thiadiazol-5-yl)benzenesulfonamide bis(2,2,2-trifluoroacetate)] | > 33800 | 95 |  | > 33800
14 | C[C@@H](N)[C@H](CNc1ncc(S(=O)(=O)Nc2ncns2)cc1Br)CC(C)(C)CCN [Example 30, 6-(((S)-6-amino-2-((R)-1-aminoethyl)-4,4-dimethylhexyl)amino)-5-bromo-N-(1,2,4-thiadiazol-5-yl)pyridine-3-sulfonamide] | > 33800 | 77 |  | > 33800
15 | Cc1cc(NC[C@H](CC(C)(C)CCN)[C@@H](C)N)c(Cl)cc1S(=O)(=O)Nc1ncns1 [Example 32, 4-(((S)-6-amino-2-((R)-1-aminoethyl)-4,4-dimethylhexyl)amino)-5-chloro-2-methyl-N-(1,2,4-thiadiazol-5-yl)benzenesulfonamide] | > 33800 | 19 |  | 20700
16 | C[C@@H](N)[C@H](CNc1cc(F)c(S(=O)(=O)Nc2ncns2)cc1F)CC1(CCN(C)C)CCC1 [Example 43, 4-(((2S,3R)-3-amino-2-((1-(2-(dimethylamino)ethyl)cyclobutyl)methyl)butyl)amino)-2,5-difluoro-N-(1,2,4-thiadiazol-5-yl)benzenesulfonamide] | > 33800 |  | 61 | > 33800

Continued, in another order:

Row | IC50 [1] [nM] | IC50 [2, 3] [nM] | IC50 [2, 4] [nM] | Structure (SMILES) | IC50 (NaV1.5) [nM]
17 | > 33800 | 109 |  | CC(C)N(CC(CNc1cc(F)c(S(=O)(=O)Nc2ncns2)cc1F)[C@@H](C)N)C[C@@H](C)N (single isomer, unassigned) [Example 38] | > 33800
18 | > 33800 |  | 210 | CC(C)N(CC(CNc1cc(F)c(S(=O)(=O)Nc2ncns2)cc1F)[C@@H](C)N)C[C@@H](C)N (single isomer, unassigned) [Example 39] | > 33800
19 | > 33800 |  | 306 | C[C@@H](N)[C@@H](CC(C)(C)CCN)C1CCc2cc(S(=O)(=O)Nc3ncns3)c(F)cc2O1 (single isomer, unassigned) [Example 42] | > 33800
20 | > 33800 |  | 57 | C[C@@H](N)C(CNc1cc(F)c(S(=O)(=O)Nc2ncns2)cc1F)CC1CCCC1CN (single isomer, unassigned) [Example 46] | > 33800
21 | > 33800 |  | 165 | C[C@@H](N)C(CNc1cc(F)c(S(=O)(=O)Nc2ncns2)cc1F)CC1(C)CCC1CN (single isomer, unassigned) [Example 53] | > 33800
22 | 224 |  | 10 | C[C@@H](N)C(CNc1cc(F)c(S(=O)(=O)Nc2ncns2)cc1Br)CC1(CCN)CC(F)(F)C1 (single isomer, unassigned) [Example 57] | > 33800
23 | > 33800 |  | 38 | C[C@@H](N)C(CNc1ccc(S(=O)(=O)Nc2ncns2)c(F)c1)CC1(CCN)CC(F)(F)C1 (single isomer, unassigned) [Example 59] | > 33800
24 | > 33800 |  | 12 | C[C@@H](N)C(CNc1cc(F)c(S(=O)(=O)Nc2ncns2)cc1F)CC1CCCCC1CCN (single isomer, unassigned) [Example 60] | 20600
25 | > 33800 |  | 16 | C[C@@H](N)C(CNc1cc(F)c(S(=O)(=O)Nc2ncns2)cc1F)CC1CCCCC1CCN (single isomer, unassigned) [Example 61] | > 33800
26 | > 33800 |  | 56 | C[C@@H](N)C(CNc1cc(F)c(S(=O)(=O)Nc2ncns2)cc1F)CC1CCCCC1CCN (single isomer, unassigned) [Example 62] | > 33800
27 | 697 | 3 |  | CC(C)C(N)CC(CNc1cc(F)c(S(=O)(=O)Nc2ncns2)cc1Br)[C@@H](C)N (single isomer, unassigned) [Example 109] | 15600
28 | 20700 | 118 |  | C[C@H]1NCCNCC(C)(C)C[C@H]1CNc1cc(F)c(S(=O)(=O)Nc2ncns2)cc1Cl [Example 5, 5-chloro-2-fluoro-N-(1,2,4-thiadiazol-5-yl)-4-((((5R,6S)-5,8,8-trimethyl-1,4-diazonan-6-yl)methyl)amino)benzenesulfonamide] | > 33800
29 | 11600 |  | 17 | C[C@@H](N)[C@H](CNc1cc(F)c(S(=O)(=O)Nc2ncns2)cc1-c1nccs1)CC(C)(C)CCN [Example 40, 4-(((S)-6-amino-2-((R)-1-aminoethyl)-4,4-dimethylhexyl)amino)-2-fluoro-N-(1,2,4-thiadiazol-5-yl)-5-(thiazol-2-yl)benzenesulfonamide] | > 33800
